Laboratory results from ChEMBL document CHEMBL3991601, “The target landscape of clinical kinase drugs” (Science, 2017).
Active and inactive are the calls of the source.

These compounds were tested against Myosin light chain kinase, smooth muscle (Homo sapiens, UniProt Q15746).
Note: in the data inactive means no Kd found up to 30 µM.

SMILES	Kd
CCc1cnn2c(NCc3ccc[n+]([O-])c3)cc(N3CCCC[C@H]3CCO)nc12 [DINACICLIB]	> 30 µM (inactive)
CC[C@H](Nc1ncnc2[nH]cnc12)c1nc2cccc(F)c2c(=O)n1-c1ccccc1 [IDELALISIB]	> 30 µM (inactive)
CNC(=O)c1cc(Oc2ccc(NC(=O)Nc3ccc(Cl)c(C(F)(F)F)c3)c(F)c2)ccn1 [REGORAFENIB]	> 30 µM (inactive)
CC[C@@H]1C(=O)N(C)c2cnc(Nc3ccc(C(=O)N[C@H]4CC[C@H](N5CCN(CC6CC6)CC5)CC4)cc3OC)nc2N1C(C)C [VOLASERTIB]	> 30 µM (inactive)

What follows are compounds tested against Bone morphogenetic protein receptor type-1B (Homo sapiens, UniProt O00238).
Chain of Bone morphogenetic protein receptor type-1B (O00238 whole entry): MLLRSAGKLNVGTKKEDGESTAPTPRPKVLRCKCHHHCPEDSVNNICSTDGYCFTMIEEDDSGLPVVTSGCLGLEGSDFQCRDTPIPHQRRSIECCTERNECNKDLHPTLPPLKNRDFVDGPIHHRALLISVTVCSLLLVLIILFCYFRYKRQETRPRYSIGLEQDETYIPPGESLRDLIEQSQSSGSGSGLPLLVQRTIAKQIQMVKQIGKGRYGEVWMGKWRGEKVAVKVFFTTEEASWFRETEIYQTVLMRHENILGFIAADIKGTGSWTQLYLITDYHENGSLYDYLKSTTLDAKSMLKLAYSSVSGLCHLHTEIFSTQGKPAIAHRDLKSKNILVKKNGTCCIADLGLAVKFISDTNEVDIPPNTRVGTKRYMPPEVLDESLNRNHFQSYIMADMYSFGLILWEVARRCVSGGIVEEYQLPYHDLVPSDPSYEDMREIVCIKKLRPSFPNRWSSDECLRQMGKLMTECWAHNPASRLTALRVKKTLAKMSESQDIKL

SMILES	Kd
CCc1cnn2c(NCc3ccc[n+]([O-])c3)cc(N3CCCC[C@H]3CCO)nc12 [DINACICLIB]	> 30 µM (inactive)
CC[C@H](Nc1ncnc2[nH]cnc12)c1nc2cccc(F)c2c(=O)n1-c1ccccc1 [IDELALISIB]	> 30 µM (inactive)
CNC(=O)c1cc(Oc2ccc(NC(=O)Nc3ccc(Cl)c(C(F)(F)F)c3)c(F)c2)ccn1 [REGORAFENIB]	> 30 µM (inactive)
CC[C@@H]1C(=O)N(C)c2cnc(Nc3ccc(C(=O)N[C@H]4CC[C@H](N5CCN(CC6CC6)CC5)CC4)cc3OC)nc2N1C(C)C [VOLASERTIB]	> 30 µM (inactive)

Each compound was assayed against Mitogen-activated protein kinase 1 (Homo sapiens, UniProt P28482).
Chain of Mitogen-activated protein kinase 1 (P28482 whole entry): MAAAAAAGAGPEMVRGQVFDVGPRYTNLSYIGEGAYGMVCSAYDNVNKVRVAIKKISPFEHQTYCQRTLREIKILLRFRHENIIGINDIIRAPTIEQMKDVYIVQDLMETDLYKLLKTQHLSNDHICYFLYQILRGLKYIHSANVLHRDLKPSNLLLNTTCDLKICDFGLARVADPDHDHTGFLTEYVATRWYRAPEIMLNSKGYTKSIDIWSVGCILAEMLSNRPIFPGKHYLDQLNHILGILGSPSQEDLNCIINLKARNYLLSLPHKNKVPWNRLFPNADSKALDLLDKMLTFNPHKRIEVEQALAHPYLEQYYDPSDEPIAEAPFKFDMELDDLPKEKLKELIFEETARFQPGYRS

SMILES	Kd
CCc1cnn2c(NCc3ccc[n+]([O-])c3)cc(N3CCCC[C@H]3CCO)nc12 [DINACICLIB]	> 30 µM (inactive)
CC[C@H](Nc1ncnc2[nH]cnc12)c1nc2cccc(F)c2c(=O)n1-c1ccccc1 [IDELALISIB]	> 30 µM (inactive)
CNC(=O)c1cc(Oc2ccc(NC(=O)Nc3ccc(Cl)c(C(F)(F)F)c3)c(F)c2)ccn1 [REGORAFENIB]	> 30 µM (inactive)
CC[C@@H]1C(=O)N(C)c2cnc(Nc3ccc(C(=O)N[C@H]4CC[C@H](N5CCN(CC6CC6)CC5)CC4)cc3OC)nc2N1C(C)C [VOLASERTIB]	> 30 µM (inactive)

Each compound was assayed against T1, Acyl-CoA dehydrogenase family member 11 (Homo sapiens, UniProt Q709F0).
T1 sequence (Q709F0 whole entry): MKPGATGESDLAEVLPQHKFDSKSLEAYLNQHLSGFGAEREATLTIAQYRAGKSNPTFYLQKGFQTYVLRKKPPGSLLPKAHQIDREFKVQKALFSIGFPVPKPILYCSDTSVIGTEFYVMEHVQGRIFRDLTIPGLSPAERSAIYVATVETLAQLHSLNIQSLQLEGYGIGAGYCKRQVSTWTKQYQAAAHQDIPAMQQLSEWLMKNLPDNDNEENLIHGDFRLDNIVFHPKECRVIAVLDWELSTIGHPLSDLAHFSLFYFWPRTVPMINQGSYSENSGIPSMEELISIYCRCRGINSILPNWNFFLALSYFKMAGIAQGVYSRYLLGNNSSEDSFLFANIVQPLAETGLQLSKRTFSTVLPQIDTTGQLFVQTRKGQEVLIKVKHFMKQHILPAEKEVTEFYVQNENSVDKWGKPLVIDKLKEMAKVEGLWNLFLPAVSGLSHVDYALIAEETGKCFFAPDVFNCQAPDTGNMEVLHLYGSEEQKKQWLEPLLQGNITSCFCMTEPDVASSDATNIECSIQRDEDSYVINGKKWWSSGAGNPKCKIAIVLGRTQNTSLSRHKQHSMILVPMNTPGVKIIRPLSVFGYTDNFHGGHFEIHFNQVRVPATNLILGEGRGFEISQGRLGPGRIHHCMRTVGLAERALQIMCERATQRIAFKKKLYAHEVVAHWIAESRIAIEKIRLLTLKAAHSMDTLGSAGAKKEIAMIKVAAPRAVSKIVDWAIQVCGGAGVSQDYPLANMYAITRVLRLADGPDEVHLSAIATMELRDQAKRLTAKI

SMILES	Kd
CCc1cnn2c(NCc3ccc[n+]([O-])c3)cc(N3CCCC[C@H]3CCO)nc12 [DINACICLIB]	> 30 µM (inactive)
CC[C@H](Nc1ncnc2[nH]cnc12)c1nc2cccc(F)c2c(=O)n1-c1ccccc1 [IDELALISIB]	> 30 µM (inactive)
CNC(=O)c1cc(Oc2ccc(NC(=O)Nc3ccc(Cl)c(C(F)(F)F)c3)c(F)c2)ccn1 [REGORAFENIB]	> 30 µM (inactive)
CC[C@@H]1C(=O)N(C)c2cnc(Nc3ccc(C(=O)N[C@H]4CC[C@H](N5CCN(CC6CC6)CC5)CC4)cc3OC)nc2N1C(C)C [VOLASERTIB]	> 30 µM (inactive)

What follows are compounds tested against T2, ATP-dependent RNA helicase DDX1 (Homo sapiens, UniProt Q92499).
T2 sequence (Q92499 whole entry): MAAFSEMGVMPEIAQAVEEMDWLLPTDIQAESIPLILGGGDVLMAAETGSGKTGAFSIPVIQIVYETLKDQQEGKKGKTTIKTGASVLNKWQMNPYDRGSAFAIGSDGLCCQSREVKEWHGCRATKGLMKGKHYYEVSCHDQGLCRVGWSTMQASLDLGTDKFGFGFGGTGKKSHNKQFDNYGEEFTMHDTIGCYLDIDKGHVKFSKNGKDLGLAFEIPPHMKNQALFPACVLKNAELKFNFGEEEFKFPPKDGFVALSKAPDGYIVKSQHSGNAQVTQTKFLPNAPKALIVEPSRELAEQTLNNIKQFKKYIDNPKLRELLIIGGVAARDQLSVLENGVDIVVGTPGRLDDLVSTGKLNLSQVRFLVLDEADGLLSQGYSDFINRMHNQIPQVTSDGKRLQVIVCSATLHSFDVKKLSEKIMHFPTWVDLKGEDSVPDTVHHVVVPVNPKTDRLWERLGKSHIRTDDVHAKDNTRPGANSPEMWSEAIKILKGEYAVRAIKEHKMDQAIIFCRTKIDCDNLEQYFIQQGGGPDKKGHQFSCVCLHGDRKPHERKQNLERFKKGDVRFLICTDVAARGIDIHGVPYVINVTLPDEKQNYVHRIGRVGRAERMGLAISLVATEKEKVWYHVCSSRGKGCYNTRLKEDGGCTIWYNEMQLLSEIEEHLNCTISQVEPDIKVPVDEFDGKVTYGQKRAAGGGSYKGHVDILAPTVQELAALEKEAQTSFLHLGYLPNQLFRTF

SMILES	Kd
CCc1cnn2c(NCc3ccc[n+]([O-])c3)cc(N3CCCC[C@H]3CCO)nc12 [DINACICLIB]	> 30 µM (inactive)
CC[C@H](Nc1ncnc2[nH]cnc12)c1nc2cccc(F)c2c(=O)n1-c1ccccc1 [IDELALISIB]	> 30 µM (inactive)
CNC(=O)c1cc(Oc2ccc(NC(=O)Nc3ccc(Cl)c(C(F)(F)F)c3)c(F)c2)ccn1 [REGORAFENIB]	> 30 µM (inactive)
CC[C@@H]1C(=O)N(C)c2cnc(Nc3ccc(C(=O)N[C@H]4CC[C@H](N5CCN(CC6CC6)CC5)CC4)cc3OC)nc2N1C(C)C [VOLASERTIB]	> 30 µM (inactive)

Each compound was assayed against Mitogen-activated protein kinase kinase kinase 20 (Homo sapiens, UniProt Q9NYL2).
Chain of Mitogen-activated protein kinase kinase kinase 20 (Q9NYL2 whole entry): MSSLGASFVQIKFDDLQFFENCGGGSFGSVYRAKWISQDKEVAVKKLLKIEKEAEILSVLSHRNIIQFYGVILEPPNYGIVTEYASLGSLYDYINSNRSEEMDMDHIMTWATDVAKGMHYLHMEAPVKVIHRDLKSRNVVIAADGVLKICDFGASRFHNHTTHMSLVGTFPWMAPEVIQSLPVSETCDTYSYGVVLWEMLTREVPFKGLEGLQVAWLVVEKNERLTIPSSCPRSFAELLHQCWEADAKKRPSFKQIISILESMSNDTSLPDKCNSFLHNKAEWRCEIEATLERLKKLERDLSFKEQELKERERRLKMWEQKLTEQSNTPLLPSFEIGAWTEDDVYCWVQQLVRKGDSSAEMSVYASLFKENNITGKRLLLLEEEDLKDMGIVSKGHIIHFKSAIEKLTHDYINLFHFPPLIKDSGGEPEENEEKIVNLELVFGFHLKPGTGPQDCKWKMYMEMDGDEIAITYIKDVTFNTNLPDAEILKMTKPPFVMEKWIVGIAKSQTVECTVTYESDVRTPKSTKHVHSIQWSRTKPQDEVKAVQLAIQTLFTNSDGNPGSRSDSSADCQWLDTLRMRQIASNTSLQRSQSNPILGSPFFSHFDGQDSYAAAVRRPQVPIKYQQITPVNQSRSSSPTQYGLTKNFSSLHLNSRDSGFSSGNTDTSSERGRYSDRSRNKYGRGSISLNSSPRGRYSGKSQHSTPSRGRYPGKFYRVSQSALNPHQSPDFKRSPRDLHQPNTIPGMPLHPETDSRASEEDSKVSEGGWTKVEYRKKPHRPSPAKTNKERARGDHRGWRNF

SMILES	Kd
CCc1cnn2c(NCc3ccc[n+]([O-])c3)cc(N3CCCC[C@H]3CCO)nc12 [DINACICLIB]	> 30 µM (inactive)
CC[C@H](Nc1ncnc2[nH]cnc12)c1nc2cccc(F)c2c(=O)n1-c1ccccc1 [IDELALISIB]	> 30 µM (inactive)
CNC(=O)c1cc(Oc2ccc(NC(=O)Nc3ccc(Cl)c(C(F)(F)F)c3)c(F)c2)ccn1 [REGORAFENIB]	0.274 µM (active)
CC[C@@H]1C(=O)N(C)c2cnc(Nc3ccc(C(=O)N[C@H]4CC[C@H](N5CCN(CC6CC6)CC5)CC4)cc3OC)nc2N1C(C)C [VOLASERTIB]	> 30 µM (inactive)

What follows are compounds tested against U5 small nuclear ribonucleoprotein 200 kDa helicase (Homo sapiens, UniProt O75643).
Chain of U5 small nuclear ribonucleoprotein 200 kDa helicase (O75643 whole entry): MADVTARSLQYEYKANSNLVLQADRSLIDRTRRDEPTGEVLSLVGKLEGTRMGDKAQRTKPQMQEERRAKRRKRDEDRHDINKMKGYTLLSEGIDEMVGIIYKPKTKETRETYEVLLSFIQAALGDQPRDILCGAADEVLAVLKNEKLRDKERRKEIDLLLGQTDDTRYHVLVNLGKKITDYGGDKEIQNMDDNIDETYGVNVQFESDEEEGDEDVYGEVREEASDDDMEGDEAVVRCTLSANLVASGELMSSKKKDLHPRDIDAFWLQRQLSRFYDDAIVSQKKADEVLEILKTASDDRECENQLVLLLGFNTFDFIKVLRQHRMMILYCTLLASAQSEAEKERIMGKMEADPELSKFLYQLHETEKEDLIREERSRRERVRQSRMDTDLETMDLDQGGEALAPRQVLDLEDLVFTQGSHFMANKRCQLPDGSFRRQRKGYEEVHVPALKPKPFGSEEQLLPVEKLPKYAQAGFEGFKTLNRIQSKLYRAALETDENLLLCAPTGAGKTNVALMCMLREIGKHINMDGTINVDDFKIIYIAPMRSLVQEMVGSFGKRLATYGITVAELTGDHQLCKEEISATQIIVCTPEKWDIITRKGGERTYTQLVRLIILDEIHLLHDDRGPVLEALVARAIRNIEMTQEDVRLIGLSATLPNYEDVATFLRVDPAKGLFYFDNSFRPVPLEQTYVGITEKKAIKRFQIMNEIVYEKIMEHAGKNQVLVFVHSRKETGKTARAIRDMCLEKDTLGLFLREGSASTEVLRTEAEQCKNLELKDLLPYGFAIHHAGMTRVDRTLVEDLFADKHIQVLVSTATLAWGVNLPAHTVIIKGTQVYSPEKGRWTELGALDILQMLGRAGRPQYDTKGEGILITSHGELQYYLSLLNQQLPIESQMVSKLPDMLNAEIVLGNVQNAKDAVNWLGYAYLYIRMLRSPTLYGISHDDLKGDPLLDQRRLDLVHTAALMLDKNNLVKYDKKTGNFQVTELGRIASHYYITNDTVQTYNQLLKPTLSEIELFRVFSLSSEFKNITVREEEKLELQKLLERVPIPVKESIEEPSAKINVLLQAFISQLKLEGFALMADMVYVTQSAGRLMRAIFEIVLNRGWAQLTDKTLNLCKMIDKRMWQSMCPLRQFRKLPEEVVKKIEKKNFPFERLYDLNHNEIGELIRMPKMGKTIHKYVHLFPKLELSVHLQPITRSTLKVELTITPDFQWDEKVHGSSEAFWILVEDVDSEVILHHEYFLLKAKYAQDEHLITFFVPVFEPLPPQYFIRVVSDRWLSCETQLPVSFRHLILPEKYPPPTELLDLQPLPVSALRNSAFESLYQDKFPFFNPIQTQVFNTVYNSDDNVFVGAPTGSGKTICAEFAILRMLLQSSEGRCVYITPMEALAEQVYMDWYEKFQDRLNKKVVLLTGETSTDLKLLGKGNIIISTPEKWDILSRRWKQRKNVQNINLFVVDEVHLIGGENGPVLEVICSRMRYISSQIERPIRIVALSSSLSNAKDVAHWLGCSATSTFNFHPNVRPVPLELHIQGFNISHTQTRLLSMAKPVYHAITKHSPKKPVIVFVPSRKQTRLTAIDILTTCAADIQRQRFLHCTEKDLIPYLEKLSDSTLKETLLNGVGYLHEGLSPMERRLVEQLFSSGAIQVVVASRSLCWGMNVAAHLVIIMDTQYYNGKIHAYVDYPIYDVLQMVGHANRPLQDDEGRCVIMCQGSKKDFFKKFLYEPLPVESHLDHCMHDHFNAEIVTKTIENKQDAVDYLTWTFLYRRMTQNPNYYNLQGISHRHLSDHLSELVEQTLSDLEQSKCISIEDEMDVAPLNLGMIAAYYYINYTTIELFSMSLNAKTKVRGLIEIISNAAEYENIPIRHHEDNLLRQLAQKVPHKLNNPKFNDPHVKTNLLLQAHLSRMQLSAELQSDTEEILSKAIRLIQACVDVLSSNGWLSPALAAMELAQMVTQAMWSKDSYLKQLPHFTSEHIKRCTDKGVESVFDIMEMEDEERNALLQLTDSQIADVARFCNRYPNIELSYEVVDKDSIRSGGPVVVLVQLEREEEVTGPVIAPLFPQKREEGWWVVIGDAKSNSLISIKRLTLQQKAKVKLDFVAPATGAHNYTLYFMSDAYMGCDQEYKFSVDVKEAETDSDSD

SMILES	Kd
CCc1cnn2c(NCc3ccc[n+]([O-])c3)cc(N3CCCC[C@H]3CCO)nc12 [DINACICLIB]	> 30 µM (inactive)
CNC(=O)c1cc(Oc2ccc(NC(=O)Nc3ccc(Cl)c(C(F)(F)F)c3)c(F)c2)ccn1 [REGORAFENIB]	> 30 µM (inactive)
CC[C@@H]1C(=O)N(C)c2cnc(Nc3ccc(C(=O)N[C@H]4CC[C@H](N5CCN(CC6CC6)CC5)CC4)cc3OC)nc2N1C(C)C [VOLASERTIB]	> 30 µM (inactive)

What follows are compounds tested against RAC-gamma serine/threonine-protein kinase (Homo sapiens, UniProt Q9Y243).
Chain of RAC-gamma serine/threonine-protein kinase (Q9Y243 whole entry): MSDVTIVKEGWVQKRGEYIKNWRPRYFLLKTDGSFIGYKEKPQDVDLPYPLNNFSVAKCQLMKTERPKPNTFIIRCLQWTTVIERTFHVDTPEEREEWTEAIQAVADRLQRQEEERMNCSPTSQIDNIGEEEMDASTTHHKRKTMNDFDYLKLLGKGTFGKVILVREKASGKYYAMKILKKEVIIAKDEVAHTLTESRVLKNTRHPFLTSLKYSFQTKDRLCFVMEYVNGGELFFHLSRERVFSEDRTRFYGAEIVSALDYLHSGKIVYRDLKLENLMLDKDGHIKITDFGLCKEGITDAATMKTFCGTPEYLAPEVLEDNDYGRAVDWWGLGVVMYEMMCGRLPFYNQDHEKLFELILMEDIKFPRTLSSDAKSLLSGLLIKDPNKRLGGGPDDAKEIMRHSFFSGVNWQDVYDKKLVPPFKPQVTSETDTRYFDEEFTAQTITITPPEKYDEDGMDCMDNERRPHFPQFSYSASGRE

SMILES	Kd
CCc1cnn2c(NCc3ccc[n+]([O-])c3)cc(N3CCCC[C@H]3CCO)nc12 [DINACICLIB]	> 30 µM (inactive)
CC[C@H](Nc1ncnc2[nH]cnc12)c1nc2cccc(F)c2c(=O)n1-c1ccccc1 [IDELALISIB]	> 30 µM (inactive)
CNC(=O)c1cc(Oc2ccc(NC(=O)Nc3ccc(Cl)c(C(F)(F)F)c3)c(F)c2)ccn1 [REGORAFENIB]	> 30 µM (inactive)
CC[C@@H]1C(=O)N(C)c2cnc(Nc3ccc(C(=O)N[C@H]4CC[C@H](N5CCN(CC6CC6)CC5)CC4)cc3OC)nc2N1C(C)C [VOLASERTIB]	> 30 µM (inactive)
